Data: patent publication US8840904B2, “Compositions and methods for vaccinating against HSV-2” (priority 2006, dated 2014)
No end group written: not given here.

Legend:
recombinant HLA B*0702 = recombinant HLA B*0702 (Homo sapiens, UniProt P01889); assay: biochemical; type: binding
[1] = system: CD8^+ T-cells specific for the “majority”; assay: Cross-reactivity of CD8+ T-cells with UL49 AA 49-57 variants; type: cell-based, human

| Sequence | IC50 (recombinant HLA B*0702) [nM] | cross-reactivity of majority-specific CD8^+ T-cells [1] |
| --- | --- | --- |
| RPRGEVREFL | < 2 | – |
| RPRGKVRFL | – | not cross-reactive |
